# Measurements: patent US20230248766A1, “METHODS OF TREATING OXIDATIVE STRESS TO MODULATE REDOX BALANCE, PREVENTING OXIDATIVE STRESS INDUCED CELL DAMAGE AND DEATH” (Redox Balance, LLC, priority 2019, published 2023)
# Legend:
# tomato plants = experiment: Plant growth enhancement by treatment with water-soluble C60; format: in vivo
# Description: Treated plants weighed 2X untreated plants. […] Example 7. […] Treated plants weighed 2× untreated plants.
# seeds = experiment: Seed pre-treatment to enhance germination; format: in vivo; details: soaking seeds for 1 hour prior to placing in growing medium
substance,measurement,setting,value
polyhydroxy-C60,weight of treated plants relative to untreated plants,tomato plants; tomato plants after two weeks,2 X
same,increases in growth rate,tomato plants; treatment of clones before initial planting,up to two times
same,germination,seeds,significant enhancement of germination
